Assay results reported in PubChem BioAssay (NCI).
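Protocol summary: plate cells (96-well), add compound at 5 concentrations, incubate 48 h, interpolate endpoints linearly. TGI: total growth inhibition.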

Legend:
Assay in all cases: NCI anticancer screen, dose series, 48 h
UO-31 renal = system: UO-31 renal
MDA-MB-435 = system: MDA-MB-435
SK-MEL-2 melanoma = system: SK-MEL-2 melanoma
OVCAR-5 ovarian = system: OVCAR-5 ovarian
A549 NSCLC = system: A549 NSCLC
M14 melanoma = system: M14 melanoma
U251 CNS = system: U251 CNS
LOX IMVI melanoma = system: LOX IMVI melanoma
EKVX NSCLC = system: EKVX NSCLC
IGROV1 ovarian = system: IGROV1 ovarian
UACC-257 melanoma = system: UACC-257 melanoma
MDA-MB-231 breast = system: MDA-MB-231 breast
SN12C renal = system: SN12C renal
RXF 393 renal = system: RXF 393 renal
ACHN renal = system: ACHN renal
A498 renal = system: A498 renal
UACC-62 melanoma = system: UACC-62 melanoma
SNB-75 CNS = system: SNB-75 CNS
SK-OV-3 ovarian = system: SK-OV-3 ovarian
DU-145 prostate = system: DU-145 prostate
CAKI-1 renal = system: CAKI-1 renal
HCT-116 colon = system: HCT-116 colon
HS 578T breast = system: HS 578T breast
SW-620 colon = system: SW-620 colon
OVCAR-8 ovarian = system: OVCAR-8 ovarian
NCI-H226 lung = system: NCI-H226 lung
NCI/ADR-RES ovarian = system: NCI/ADR-RES ovarian
OVCAR-3 ovarian = system: OVCAR-3 ovarian
MDA-N = system: MDA-N
MALME-3M melanoma = system: MALME-3M melanoma
COLO 205 colon = system: COLO 205 colon
BT-549 breast = system: BT-549 breast
786-0 renal = system: 786-0 renal
NCI-H522 lung = system: NCI-H522 lung
RPMI-8226 leukemia = system: RPMI-8226 leukemia
SK-MEL-28 melanoma = system: SK-MEL-28 melanoma
K-562 leukemia = system: K-562 leukemia
SF-268 CNS = system: SF-268 CNS
SF-295 CNS = system: SF-295 CNS
SK-MEL-5 melanoma = system: SK-MEL-5 melanoma
NCI-H23 lung = system: NCI-H23 lung
CCRF-CEM leukemia = system: CCRF-CEM leukemia
T-47D breast = system: T-47D breast
HCT-15 colon = system: HCT-15 colon
KM12 colon = system: KM12 colon
TK-10 renal = system: TK-10 renal
MOLT-4 leukemia = system: MOLT-4 leukemia
NCI-H460 lung = system: NCI-H460 lung
HT29 colon = system: HT29 colon
HOP-92 NSCLC = system: HOP-92 NSCLC
PC-3 prostate = system: PC-3 prostate
HL-60(TB) leukemia = system: HL-60(TB) leukemia
HOP-62 NSCLC = system: HOP-62 NSCLC
SNB-19 CNS = system: SNB-19 CNS
OVCAR-4 ovarian = system: OVCAR-4 ovarian
SF-539 CNS = system: SF-539 CNS
HCC-2998 colon = system: HCC-2998 colon
MCF7 breast = system: MCF7 breast

With `CC1(C)O[C@@H]([C@@H](O)[C@H](O)C2SCCCS2)[C@@H](CO)O1` the TGI (UO-31 renal) was > 100 µM, the TGI (MDA-MB-435) was > 100 µM and the TGI (SK-MEL-2 melanoma) was > 100 µM. For the same compound, the TGI (OVCAR-5 ovarian) was > 100 µM, the TGI (A549 NSCLC) was > 100 µM and the TGI (M14 melanoma) was > 100 µM. The TGI (U251 CNS) was > 100 µM, the TGI (LOX IMVI melanoma) was > 100 µM and the TGI (EKVX NSCLC) was > 100 µM. For the same compound, the TGI (IGROV1 ovarian) was > 100 µM, the TGI (UACC-257 melanoma) was > 100 µM and the TGI (MDA-MB-231 breast) was > 100 µM. The TGI (SN12C renal) was > 100 µM, the TGI (RXF 393 renal) was > 100 µM and the TGI (ACHN renal) was > 100 µM. For the same compound, the TGI (A498 renal) was > 100 µM, the TGI (UACC-62 melanoma) was > 100 µM and the TGI (SNB-75 CNS) was > 100 µM. The TGI (SK-OV-3 ovarian) was > 100 µM, the TGI (DU-145 prostate) was > 100 µM and the TGI (CAKI-1 renal) was > 100 µM. The TGI (HCT-116 colon) was > 100 µM, the TGI (HS 578T breast) was > 100 µM and the TGI (SW-620 colon) was > 100 µM. The TGI (OVCAR-8 ovarian) was > 100 µM, the TGI (NCI-H226 lung) was > 100 µM and the TGI (NCI/ADR-RES ovarian) was > 100 µM. For the same compound, the TGI (OVCAR-3 ovarian) was > 100 µM, the TGI (MDA-N) was > 100 µM and the TGI (MALME-3M melanoma) was > 100 µM. For the same compound, the TGI (COLO 205 colon) was > 100 µM, the TGI (BT-549 breast) was > 100 µM and the TGI (786-0 renal) was > 100 µM. The TGI (NCI-H522 lung) was > 100 µM, the TGI (RPMI-8226 leukemia) was > 100 µM and the TGI (SK-MEL-28 melanoma) was > 100 µM. For the same compound, the TGI (K-562 leukemia) was > 100 µM, the TGI (SF-268 CNS) was > 100 µM and the TGI (SF-295 CNS) was > 100 µM. For the same compound, the TGI (SK-MEL-5 melanoma) was > 100 µM, the TGI (NCI-H23 lung) was > 100 µM and the TGI (CCRF-CEM leukemia) was > 100 µM. For the same compound, the TGI (T-47D breast) was > 100 µM, the TGI (HCT-15 colon) was > 100 µM and the TGI (KM12 colon) was > 100 µM. The TGI (TK-10 renal) was > 100 µM, the TGI (MOLT-4 leukemia) was > 100 µM and the TGI (NCI-H460 lung) was > 100 µM. For the same compound, the TGI (HT29 colon) was > 100 µM, the TGI (HOP-92 NSCLC) was > 100 µM and the TGI (PC-3 prostate) was > 100 µM. The TGI (HL-60(TB) leukemia) was > 100 µM, the TGI (HOP-62 NSCLC) was > 100 µM and the TGI (SNB-19 CNS) was > 100 µM.

With `CCOC(=O)CC(=O)Nc1c(C(=O)OCC)sc2nc(SC)nc(Nc3ccc(OC)c(OC)c3)c12` the TGI (UO-31 renal) was > 100 µM, the TGI (MDA-MB-435) was > 100 µM and the TGI (SK-MEL-2 melanoma) was > 100 µM. For the same compound, the TGI (OVCAR-5 ovarian) was > 100 µM, the TGI (A549 NSCLC) was > 100 µM and the TGI (M14 melanoma) was > 100 µM. For the same compound, the TGI (U251 CNS) was 25.1 µM, the TGI (LOX IMVI melanoma) was > 100 µM and the TGI (EKVX NSCLC) was > 100 µM. The TGI (OVCAR-4 ovarian) was > 100 µM, the TGI (IGROV1 ovarian) was > 100 µM and the TGI (UACC-257 melanoma) was > 100 µM. For the same compound, the TGI (MDA-MB-231 breast) was > 100 µM, the TGI (SN12C renal) was > 100 µM and the TGI (RXF 393 renal) was 25.1 µM. For the same compound, the TGI (ACHN renal) was > 100 µM, the TGI (A498 renal) was 82.4 µM and the TGI (UACC-62 melanoma) was > 100 µM. For the same compound, the TGI (SNB-75 CNS) was 21.9 µM, the TGI (DU-145 prostate) was > 100 µM and the TGI (CAKI-1 renal) was > 100 µM. The TGI (HCT-116 colon) was > 100 µM, the TGI (HS 578T breast) was > 100 µM and the TGI (SW-620 colon) was > 100 µM. The TGI (SF-539 CNS) was 69.2 µM, the TGI (OVCAR-8 ovarian) was > 100 µM and the TGI (NCI-H226 lung) was > 100 µM. For the same compound, the TGI (NCI/ADR-RES ovarian) was > 100 µM, the TGI (OVCAR-3 ovarian) was 40.1 µM and the TGI (MDA-N) was > 100 µM. The TGI (MALME-3M melanoma) was > 100 µM, the TGI (COLO 205 colon) was > 100 µM and the TGI (BT-549 breast) was > 100 µM. The TGI (786-0 renal) was 37 µM, the TGI (NCI-H522 lung) was 34.1 µM and the TGI (SK-MEL-28 melanoma) was > 100 µM. The TGI (HCC-2998 colon) was > 100 µM, the TGI (SF-268 CNS) was > 100 µM and the TGI (SF-295 CNS) was 76.1 µM. For the same compound, the TGI (SK-MEL-5 melanoma) was > 100 µM, the TGI (NCI-H23 lung) was > 100 µM and the TGI (CCRF-CEM leukemia) was > 100 µM. The TGI (MCF7 breast) was > 100 µM, the TGI (HCT-15 colon) was > 100 µM and the TGI (KM12 colon) was > 100 µM. For the same compound, the TGI (TK-10 renal) was > 100 µM, the TGI (HT29 colon) was > 100 µM and the TGI (HOP-92 NSCLC) was 33.7 µM. The TGI (PC-3 prostate) was > 100 µM and the TGI (HL-60(TB) leukemia) was > 100 µM.
